Results from US6399052B2, “Treating hair by targeting enzymes” (Unilever Home & Personal Care USA division of Conopco, Inc., priority 1999, dated 2002).
Peptide text beside a SMILES is read from it. * marks the point of attachment. AMC = Cc1cc(=O)oc2cc(N*)ccc12; Cbz = O=C(OCc1ccccc1)*

How the values were obtained:
[1] = test system: cathepsin L-type protease activity of hair extract; test: peptidyl-AMC protease assay of hair fibre extract; format: biochemical, human
Method: Hair fibres taken from approx. 5 mm from the scalps of male and female individuals, aged 25-35, were cleaned, dried and then ground in liquid N2, and homogenised with an Ystral Homogeniser (high shear) using a 10 mm probe in extraction buffer (50 mM Citrate-Phosphate pH6.0, 2M NaCl).
Triton X-100 (2% stock) was added to the homogenate to a final concentration of 0.1%, and intermittently mixed by gentle agitation and incubated on ice for 1 hour. Large hair debris was allowed to precipitate and the solution was centrifuged at 13000 rpm for 5 minutes to remove insoluble protein. The resulting supernatant, containing soluble protein was dialysed (MWCO ca […]) in 50 mM citrate-phosphate, pH 6.0. Glycerol was added to the dialysed extract to 20% (v/v). The extracts were then aliquotted and stored at −20° C. until required.
With the above information, it was decided to investigate the protease profile of the hair extracts with the use of more specific peptide substrates (peptidyl-7-amido-4-methylcoumarin (peptidyl-AMC) substrates). Seven peptidyl-AMC substrates were used to study the protease types within the hair extract. These were selected on the basis of their specificity for individual protease species.
Stock solutions of each peptidyl-AMC substrate (Bachem) were prepared at 10 mM in DMSO and stored in aliquots at 4° C. Each aliquot was diluted to 1 mM with MQ water, prior to use. All assays (100 μl final volume) were routinely conducted in triplicate. For the measurement of cysteine protease activity, the standard assay contained 50 mM citrate-phosphate buffer pH 6.0, 100 μM peptidyl-AMC, 5 mM cysteine and approximately 1 μg protein extract. The assays were initiated by the addition of substrate and incubated at 30° C. for 2 hours. The reactions were terminated with the addition of 1 ml ‘stop’ solution (100 mM sodium monochloroacetate, 30 mM sodium acetate, 70 mM acetic acid).
The hydrolysed AMC was measured with the use of a fluorimeter set to 370 nm (excitation) and 460 nm (emission). Protease activity was quantified using standard concentrations of AMC. The fluorescence of each substrate and the hair extract were also measured and these values subtracted from the final fluorescence of each reaction, to give the value of fluorescence increase due to AMC liberation.

[2] = molecular target: T1, human steroid sulphatase (Homo sapiens, UniProt P08842); conditions: substrate cholesterol-3-sulphate; cited from earlier work
T1 sequence (P08842 22-583): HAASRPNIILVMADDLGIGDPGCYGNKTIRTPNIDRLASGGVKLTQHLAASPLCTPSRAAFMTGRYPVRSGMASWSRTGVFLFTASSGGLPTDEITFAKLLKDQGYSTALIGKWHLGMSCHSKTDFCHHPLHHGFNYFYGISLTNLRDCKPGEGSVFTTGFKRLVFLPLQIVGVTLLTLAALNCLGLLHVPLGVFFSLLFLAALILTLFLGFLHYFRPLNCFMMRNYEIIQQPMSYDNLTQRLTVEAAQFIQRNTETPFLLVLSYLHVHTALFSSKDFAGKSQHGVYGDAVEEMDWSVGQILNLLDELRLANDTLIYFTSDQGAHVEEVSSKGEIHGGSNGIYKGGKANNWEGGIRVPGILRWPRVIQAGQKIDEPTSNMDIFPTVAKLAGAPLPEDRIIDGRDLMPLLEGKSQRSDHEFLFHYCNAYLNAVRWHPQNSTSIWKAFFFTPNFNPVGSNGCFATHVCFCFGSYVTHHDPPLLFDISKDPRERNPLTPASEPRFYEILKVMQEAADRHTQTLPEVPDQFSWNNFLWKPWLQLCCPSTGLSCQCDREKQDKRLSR

[3] = hair fibre extract, substrate z-Phe-Arg-AMC

CC(C)C[C@H](NC(=O)[C@H]1O[C@@H]1C(=O)O)C(=O)NCCCCN=C(N)N (relative stereo) [E-6464, L-trans-epoxysuccinyl-leucylamido(4-guanido)butane]
inhibition of the z-Phe-Arg-AMC hydrolysing activity of hair extract [1, 3]: potently inhibited

N[C@@H](CS)C(=O)O [cysteine]
stimulation of the z-Phe-Arg-AMC hydrolysing activity of hair extract [1, 3]: stimulated

Cc1cc(=O)oc2cc(NC(=O)C(CCCN=C(N)N)NC(=O)C(Cc3ccccc3)NC(=O)OCc3ccccc3)ccc12 (stereo not drawn) [z-Phe-Arg-AMC] (Cbz-Phe-Arg-{AMC}; configuration not given here)
apparent Vmax of cathepsin L-type activity ([1]; hair extract, 1 mg of extract from approx. 9 g hair): 1.66 nmoles AMC produced per minute per mg hair extract | hydrolysis by the hair extracts compared with the other peptidyl-AMC substrates ([1]; seven peptidyl-AMC substrates, 100 μM, pH 6.0, 30° C., 2 hours): most hydrolysed

CC(C)CCC[C@@H](C)[C@H]1CC[C@H]2[C@@H]3CC=C4C[C@@H](OS(=O)(=O)O)CC[C@]4(C)[C@H]3CC[C@]12C [cholesterol-3-sulphate]
Km [2]: 5 µM
